Measured values as given in patent US20090030039A1, “Piperidine Derivatives as Cxcr3 Receptor Antagonists” (priority 2006, published 2009).
Counter-ions that a name gives are not always drawn.

Molecular target: T1, human CXCR3 (Homo sapiens, UniProt P49682)
T1 construct: expressed in transfected cells; host or cells: CHO cells (membrane preparation)
T1 sequence (P49682 1-368): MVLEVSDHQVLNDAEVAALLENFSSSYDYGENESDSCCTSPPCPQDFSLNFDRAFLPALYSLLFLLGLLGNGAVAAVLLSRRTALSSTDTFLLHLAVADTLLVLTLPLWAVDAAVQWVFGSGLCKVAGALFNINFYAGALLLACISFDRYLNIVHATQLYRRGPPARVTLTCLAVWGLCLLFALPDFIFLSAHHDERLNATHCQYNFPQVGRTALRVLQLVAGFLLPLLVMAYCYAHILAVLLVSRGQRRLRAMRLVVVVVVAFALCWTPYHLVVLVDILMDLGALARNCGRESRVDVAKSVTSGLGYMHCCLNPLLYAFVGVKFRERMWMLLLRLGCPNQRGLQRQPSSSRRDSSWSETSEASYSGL
Test: [35S]GTPγS exchange assay, CXCR3 receptor inhibition (hI-TAC-induced GTPγS-binding)
Assay type: biochemical
Conditions: -log IC50 (molar) inhibiting 50% of specific I-TAC-induced GTPγS-binding; membranes of human CXCR3-transfected CHO cells
Method: CXCR3 Receptor Inhibition was Examined in a [^35S]GTPγS Exchange Assay
The exchange of guanosine 5′-[^35S]triphosphate was measured on membranes of human CXCR3-transfected CHO cells. [^35S]GTPγS exchange assays were performed in 96-well plates with 10 μg of membrane protein/well using basic flashplates (Perkin Elmer). Compounds were dissolved in DMSO and diluted with incubation buffer to yield required concentrations with 9% DMSO. Incubation buffer is composed of 20 mM HEPES, 100 mM NaCl, 3 μM GDP and 1 mM MgCl2, pH 7.4. […] Compound, membranes, hI-TAC (interferon-inducible T-cell alpha chemoattractant) and [^35S]GTPγS were added in a total volume of 200 μl. First, 20 μl of the appropriate compound dilution and 140 μl membranes from CXCR3-CHO cells were dissolved in membrane incubation buffer and pre-incubated for 30 minutes at 30° C. Then, 20 μl of hI-TAC dissolved at 30 nM in incubation buffer was added to the membranes and the mixture containing 1% of DMSO was incubated for another 30 minutes at 30° C. […] After 1 minute shaking and 30 minutes incubation at 30° C., flashplates were centrifuged for 5 minutes at 2500 rpm at room temperature. Flashplate bound radioactivity was determined by liquid scintillation counting. Basal GTPγS-binding was measured in 8 wells with membranes incubated in the same volume with 1% DMSO, without I-TAC. Maximal GTPγS-binding was measured in 8 wells with membranes incubated with 1% DMSO and 3 nM I-TAC. […] IC50 values were calculated using non-linear regression in Graphpad Prism.
CCN1C(=O)CCC(c2ccccc2)(C2CCN(Cc3ccc(Br)cc3)CC2)C1=O (stereo not drawn) [Compound 126] gave a pIC50 of 5.6.
O=C1CCC(c2cccc(O)c2)(C2CCN(Cc3ccc(Br)cc3)CC2)C(=O)N1 (stereo not drawn) [Compound 39] gave a pIC50 of 6.0.
In the case of O=C1CCC(c2ccccc2)(C2CCN(Cc3ccc(Cl)c(Cl)c3)CC2)C(=O)N1 (stereo not drawn) [Compound 80], the pIC50 is reported as 5.9.
With CSCN1C(=O)CCC(c2ccccc2)(C2CCN(Cc3ccc(Br)cc3)CC2)C1=O (stereo not drawn) [Compound 38] the pIC50 was 6.0.
Compound O=C1CCC(c2cccnc2)(C2CCN(Cc3ccc(Br)cc3)CC2)C(=O)N1 (stereo not drawn) [Compound 178] has a pIC50 of 6.0.
O=C1CCC(c2ccncc2)(C2CCN(Cc3ccc(Br)cc3)CC2)C(=O)N1 (stereo not drawn) [Compound 2] showed a pIC50 of 6.2.

Same assay, conditions: -log IC50 (molar) inhibiting 50% of specific I-TAC-induced GTPγS-binding; membranes of human CXCR3-transfected CHO cells; read-out: pIC50 (converted)
With Cl.O=C1CCC(c2ccc(F)cc2F)(C2CCN(Cc3ccc(Cl)c(F)c3)CC2)C(=O)N1 (single isomer, unassigned) [Compound 204] the IC50 was 251 nM.
For O=C1CCC(c2cccc(C(F)(F)F)c2)(C2CCN(Cc3ccc(OC(F)F)cc3)CC2)C(=O)N1 (stereo not drawn) [Compound 110], the IC50 was 7940 nM.
Work on O=C1CCC(c2cccnc2)(C2CCN(Cc3ccc(Cl)cc3)CC2)C(=O)N1 (stereo not drawn) [Compound 4] yielded an IC50 of 794 nM.
O=C1CCC(c2ccc(F)cc2)(C2CCN(Cc3ccc(F)c(Br)c3)CC2)C(=O)N1 (stereo not drawn) [Compound 58] showed an IC50 of 7940 nM.
With COc1cccc(C2(C3CCN(Cc4ccc(Cl)c(F)c4)CC3)CCC(=O)NC2=O)c1 (stereo not drawn) [Compound 79] the IC50 was 251 nM.
In the case of Cc1cc(CN2CCC(C3(c4ccc(F)cc4F)CCC(=O)NC3=O)CC2)ccc1Br (stereo not drawn) [Compound 196], the IC50 is reported as 316 nM.
O=C1CCC(c2cccc(Cl)c2)(C2CCN(Cc3ccc(Br)cc3)CC2)C(=O)N1 (stereo not drawn) [Compound 89] showed an IC50 of 1580 nM.
With COC(=O)c1ccc(CN2CCC(C3(c4ccccc4)CCC(=O)NC3=O)CC2)cc1 (stereo not drawn) [Compound 36] the IC50 was 1260 nM.
For CC(c1ccc(Br)cc1)N1CCC(C2(c3ccc(F)cc3)CCC(=O)NC2)CC1 (stereo not drawn) [Compound 144], the IC50 was 631 nM.
With O=C1CCC(c2ccccc2)(C2CCN(Cc3ccc(Br)c(F)c3)CC2)C(=O)N1 (stereo not drawn) [Compound 16a] the IC50 was 316 nM.
Compound O=C1CCC(c2ccc(F)cc2F)(C2CCN(Cc3cc4cc(Br)ccc4o3)CC2)C(=O)N1 (stereo not drawn) [Compound 206] has an IC50 of 1260 nM.
Work on COc1cccc(C2(C3CCN(Cc4ccc(Cl)cc4)CC3)CCC(=O)NC2=O)c1 (stereo not drawn) [Compound 67] yielded an IC50 of 1000 nM.
In the case of O=C1CCC(c2cccc(C(=O)O)c2)(C2CCN(Cc3ccc(Cl)cc3)CC2)C(=O)N1 (stereo not drawn) [Compound 66], the IC50 is reported as 794 nM.
O=C1CCC(c2ccc(F)cc2)(C2CCN(Cc3ccc(OC(F)F)cc3)CC2)C(=O)N1 (stereo not drawn) [Compound 111] showed an IC50 of 1000 nM.
For O=C1CCC(c2cccc(C(=O)O)c2)(C2CCN(Cc3ccc(Cl)c(Cl)c3)CC2)C(=O)N1 (stereo not drawn) [Compound 83], the IC50 was 398 nM.
Compound O=C1CCC(c2ccc(F)c(F)c2)(C2CCN(Cc3ccc(Cl)c(F)c3)CC2)C(=O)N1 (stereo not drawn) [Compound 192] has an IC50 of 2510 nM.
In the case of O=C1CCC(c2ccc(F)cc2F)(C2CCN(Cc3ccc(Br)c(F)c3)CC2)C(=O)N1 (stereo not drawn) [Compound 197], the IC50 is reported as 398 nM.
Compound Cc1cc(C)c(CN2CCC(C3(c4ccccc4)CCC(=O)NC3=O)CC2)c(C)c1 (stereo not drawn) [Compound 157] has an IC50 of 3160 nM.
Compound Cc1cccc(C2(C3CCN(Cc4ccc(C(F)(F)F)cc4)CC3)CCC(=O)NC2=O)c1 (stereo not drawn) [Compound 104] has an IC50 of 3980 nM.
Work on O=C1CCC(c2ccc(F)cc2F)(C2CCN(Cc3ccc(Br)cc3F)CC2)C(=O)N1 (stereo not drawn) [Compound 198] yielded an IC50 of 251 nM.
Work on O=C1CCC(c2ccccc2)(C2CCN(Cc3ccc(Cl)s3)CC2)C(=O)N1 (stereo not drawn) [Compound 154] yielded an IC50 of 2510 nM.
O=C1CCC(c2ccccc2)(C2CCN(Cc3ccc(Br)cc3F)CC2)C(=O)N1 (stereo not drawn) [Compound 94] showed an IC50 of 501 nM.
O=C1CCC(c2ccccc2)(C2CCN(Cc3ccc(F)c(F)c3)CC2)C(=O)N1 (stereo not drawn) [Compound 47] showed an IC50 of 2000 nM.
For COc1ccc(S(=O)(=O)O)cc1C1(C2CCN(Cc3ccc(Br)cc3)CC2)CCC(=O)NC1=O (stereo not drawn) [Compound 6], the IC50 was 158 nM.
For O=C1CCC(c2ccc(F)cc2F)(C2CCN(Cc3ccc(OC(F)F)cc3)CC2)C(=O)N1 (stereo not drawn) [Compound 205], the IC50 was 631 nM.
With O=C1CCC(c2cccnc2)(C2CCN(Cc3ccc(Cl)c(F)c3)CC2)C(=O)N1 (stereo not drawn) [Compound 176] the IC50 was 2000 nM.
Work on CC(c1ccc(Br)cc1)N1CCC(C2(c3ccncc3)CCC(=O)NC2=O)CC1 (stereo not drawn) [Compound 171] yielded an IC50 of 1580 nM.
Compound O=C1CCC(c2cccnc2)(C2CCN(Cc3ccc(Br)cc3F)CC2)C(=O)N1 (stereo not drawn) [Compound 179] has an IC50 of 2000 nM.
In the case of COc1cccc(C2(C3CCN(Cc4ccc(Cl)cc4Cl)CC3)CCC(=O)NC2=O)c1 (stereo not drawn) [Compound 74], the IC50 is reported as 3980 nM.
Work on CN1CCN(C(=O)c2cccc(C3(C4CCN(Cc5ccc(Br)cc5)CC4)CCC(=O)NC3=O)c2)CC1 (stereo not drawn) [Compound 34] yielded an IC50 of 1260 nM.
Compound O=C1CCC(c2cccnc2)(C2CCN(Cc3ccc(OC(F)(F)F)cc3)CC2)C(=O)N1 (stereo not drawn) [Compound 180] has an IC50 of 2510 nM.
Compound O=C1CCC(c2cccc(C(F)(F)F)c2)(C2CCN(Cc3ccc(Br)cc3F)CC2)C(=O)N1 (stereo not drawn) [Compound 96] has an IC50 of 3160 nM.
O=C1CCC(c2ccc(F)cc2)(C2CCN(Cc3ccc(Cl)cc3Cl)CC2)C(=O)N1 (stereo not drawn) [Compound 75] gave an IC50 of 2510 nM.
In the case of O=C1CCC(c2ccc(F)cc2)(C2CCN(Cc3ccc(Br)cc3)CC2)CN1 (stereo not drawn) [Compound 143], the IC50 is reported as 631 nM.
With O=C1CCC(c2ccc(C(=O)O)cc2)(C2CCN(Cc3ccc(F)c(Cl)c3)CC2)C(=O)N1 (stereo not drawn) [Compound 190] the IC50 was 6310 nM.
O=C1CCC(c2ccc(F)cc2)(C2CCN(Cc3cc4cc(Br)ccc4o3)CC2)C(=O)N1 (stereo not drawn) [Compound 161] showed an IC50 of 3160 nM.
For O=C1CCC(c2cccc(Cl)c2)(C2CCN(Cc3ccc(Cl)cc3)CC2)C(=O)N1 (stereo not drawn) [Compound 63], the IC50 was 2000 nM.
With O=C1CCC(c2ccc(F)cc2F)(C2CCN(Cc3ccc4nonc4c3)CC2)C(=O)N1 (stereo not drawn) [Compound 207] the IC50 was 398 nM.
O=C1CCC(c2ccc(F)cc2)(C2CCN(Cc3ccc4ccccc4c3)CC2)C(=O)N1 (stereo not drawn) [Compound 150] gave an IC50 of 1000 nM.
In the case of O=C1CCC(c2ccccc2)(C2CCN(Cc3ccc(Cl)cc3Cl)CC2)CN1 (stereo not drawn) [Compound 137], the IC50 is reported as 631 nM.
Work on CC(c1ccc(Br)cc1)N1CCC(C2(c3cccc(Cl)c3)CCC(=O)NC2=O)CC1 (stereo not drawn) [Compound 164] yielded an IC50 of 1000 nM.
Work on O=C1CCC(c2ccc(F)cc2F)(C2CCN(Cc3ccc(Br)cc3)CC2)C(=O)N1 (racemic) [Compound 194] yielded an IC50 of 100 nM.
Cc1cccc(C2(C3CCN(Cc4ccc(F)c(F)c4F)CC3)CCC(=O)NC2=O)c1 (stereo not drawn) [Compound 52] showed an IC50 of 1260 nM.
Work on Cc1cc(CN2CCC(C3(c4ccccc4)CCC(=O)NC3=O)CC2)ccc1F (stereo not drawn) [Compound 59] yielded an IC50 of 1260 nM.
For O=C1CCC(c2cccc(Cl)c2)(C2CCN(Cc3ccc(Cl)cc3Cl)CC2)C(=O)N1 (stereo not drawn) [Compound 71], the IC50 was 2510 nM.
O=C1CCC(c2cccc(Cl)c2)(C2CCN(Cc3ccc4ccccc4c3)CC2)C(=O)N1 (stereo not drawn) [Compound 149] gave an IC50 of 5010 nM.

Same assay, conditions: pIC50, -log IC50 (molar) inhibiting 50% of specific I-TAC-induced GTPγS-binding; membranes of human CXCR3-transfected CHO cells
O=C1CCC(c2ccccc2)(C2CCN(Cc3ccc(Br)cc3)CC2)C(=O)N1 (stereo not drawn) [Compound 87] gave an IC50 of 794 nM.
In the case of Nc1cccc(C2(C3CCN(Cc4ccc(Br)cc4)CC3)CCC(=O)NC2=O)c1 (stereo not drawn) [Compound 35], the IC50 is reported as 316 nM.

System: not given
Test: not given
Conditions: not given
With Cl.O=C1CCC(c2ccc(F)cc2F)(C2CCN(Cc3ccc(Cl)c(F)c3)CC2)C(=O)N1 (single isomer, unassigned) [Compound 204] the melting point was 282 to 283.8 °C.
O=C1CCC(c2ccccc2)(C2CCN(Cc3ccc(Cl)c([N+](=O)[O-])c3)CC2)C(=O)N1 (stereo not drawn) (as salt: HCl) [Compound 12] gave a melting point of 244.4 to 248.3 °C.
Cl.Nc1cc(CN2CCC(C3(c4ccccc4)CCC(=O)NC3=O)CC2)ccc1Cl (stereo not drawn) gave a melting point of 287.8 °C.
